≈ marks a conversion by molar mass, not a printed value. Where two headings read alike, the source gives them in different places.

How the values of data set [1] were obtained: Solubility of compounds was determined according to the method established in the general instructions of Part II of Pharmacopoeia 2010 edition. […] The dissolution was observed within 30 minutes.
(§1) The dissolution was then observed within 30 minutes.
as §1

A further data set relates to Caco-2 cells. As to the kind of experiment: In vitro membrane permeability test (Caco-2 monolayer). The protocol: Caco-2 cell model is a human colonic adenocarcinoma cell line having a structure and function similar to differentiated intestinal epithelial cells. It has microvilli and other structures, and contains enzyme system related to intestinal brush border epithelium.
The cryopreserved Caco-2 cells were thawed in 37° C. water bath. After resuscitation, the cells were added into DMEM medium containing 10% FBS, and cultured in an incubator with 37° C., 5% CO2 and 90% relative humidity. The culture medium was changed every other day. After 1-2 days of growth, the cells were digested with 0.25% trypsin-EDTA (0.2%) mixed digestive solution at 37° C. and passaged in a certain proportion. The cell generation used in the experiments was 40-60 passages.
When cells reached 80% confluency, they were digested and suspended in complete medium and seeded on Millicell plate at 1×10^6 cells·ml^−1. After that, the culture medium was changed once every 2 days and after 1 week, was changed once every 1 day. After 5 days of culture, the resistance value reaches plateau (>200 Ω·cm^2), which can be then used for membrane permeability experiment.
The compound was diluted to 5 μmol·L^−1 by HBSS. Before experiments, the culture medium in each well was discarded, washed twice with HBSS solution at 37° C., and then incubated in a 37° C. incubator. […] The emission wavelength was set at 430 nm and the excitation wavelength was set at 530 nm.
Before experiments, Millicell inoculated with cells was soaked in HBSS solution at 37° C. for an appropriate time period, and the Millicell was washed slightly to remove the attachment on the cell surface. The permeability from cavity surface to basal surface: 0.35 ml HBSS solution containing drug was added to the top side (AP) and 1.2 ml blank HBSS solution was added to the bottom side (BL). The Millicell was incubated while shaking at 50 r·min^−1 at 37° C., a 50 μL sample was taken in the lower layer at 0, 30, 90 and 120 min, and a same volume of blank HBSS solution as added back. 3 holes were repeated for each concentration. 50 μL internal standard solution and 350 μL ethyl acetate were added to the sample, which was shaken and mixed, centrifuged at 12000 rpm for 5 min. 300 μL of supernatant was taken out, dried by evaporation, and re-dissolved in 50 μL acetonitrile. 10 μL sample was taken out for testing. For the permeability from the base surface to the cavity surface, the drug was added to the bottom side (BL), and the blank HBSS solution was added to the top side (AP). The following steps are the same as the permeability test operation from the cavity surface to the base surface.
The apparent permeability coefficient (Papp) of drugs reflects the ability of drugs to pass through monolayer cells and the speed and degree of drug absorption. It can be calculated by the following formula: […]
Herein, ΔQ is the amount of drug penetration during the time period of Δt, A is the cell surface area, which is the area of supporting membrane (0.6 cm^2) in this model, and Co is the initial concentration. The unit of Papp is usually expressed in cm/h (cm·h^−1) or cm/s (cm·s^−1).
LC/MS was used for testing. The standard curve ([…]-10000 nM) was used to quantify the concentration of each sample.

In data set [2] the target is T1, CHO membranes expressing CCR4 (Homo sapiens, UniProt P51679).
T1 construct: expressed in transfected cells; host or cells: CHO cell membranes
T1 sequence (P51679 1-360): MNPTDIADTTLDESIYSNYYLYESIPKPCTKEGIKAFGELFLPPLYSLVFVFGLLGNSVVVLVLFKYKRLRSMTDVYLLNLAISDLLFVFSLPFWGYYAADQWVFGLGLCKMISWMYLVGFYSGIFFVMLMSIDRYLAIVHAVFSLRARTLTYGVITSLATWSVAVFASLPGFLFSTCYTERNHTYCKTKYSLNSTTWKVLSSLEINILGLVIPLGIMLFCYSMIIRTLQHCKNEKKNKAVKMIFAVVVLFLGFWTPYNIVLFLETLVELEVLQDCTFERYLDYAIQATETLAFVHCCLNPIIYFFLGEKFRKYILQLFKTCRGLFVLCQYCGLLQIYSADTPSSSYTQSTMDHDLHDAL
In words: In vitro CCR4 antagonistic activity, competitive [35S]-GTPγS test. In kind it is biochemical. The protocol:
The potency of antagonists was tested by a competitive test of [35S]-GTPγS. Briefly, CHO membranes expressing CCR4 were homogenized through a 23 G needle. These membranes were then attached to WGA-coated Leadseeker SPA beads in a testing buffer (20 mM HEPES, 10 mM MgCl2, 100 mM NaCl, 0.05% BSA, 40 ug/ml saponin, adjusted to pH 7.4 with KOH 5M) to produce 3 μg/well final […] (FAC) membrane and 250 μg/well FAC bead solution. After 60 minutes of pre-coupling on ice, GDP was added to obtain 4.4 uM FAC. Then [35S]-GTPS, which was prepared in the testing buffer, was added into the bead/membrane solution to thereby obtain 0.33 nM FAC. […] The suspension of beads/membranes/[35S]-GTPγS/agonist was distributed into a white Greiner polypropylene 384-pore plate (45 μL/well), which contained 0.5 μl of compound. The final testing solution (45.5 μL) was sealed, centrifuged and incubated at room temperature for 3-6 hours. Then, the plate was read with Viewlux and the luminescence was plotted as the percentage of the maximum inhibitory response induced by IC100 standard antagonist.

Regarding `COc1cccc2c1c(NS(=O)(=O)c1ccc(Cl)s1)nn2Cc1cccc(CNC(=O)C(C)(C)O)c1` [Compound 6, N-[(3-{[3-{[(5-chloro-2-thienyl)sulfonyl]amino}-4-(methoxy)-1H-indazole-1-yl]methyl}phenyl)methyl]-2-hydroxy-2-methylpropionamide, reference compound], the “Solubility in water under 25° C. ± 2° C.” value in data set [1] was 0.02 mg/mL (≈ 36.4 µM). Further, in the data set on Caco-2 cells (Caco-2), the “absorption classification from Papp” value is recorded as “difficult-to-absorb compound”. Further, in the data set on Caco-2 cells (human, Caco-2), the “Papp (apparent permeability coefficient)” value was 0.13 ×10^−6.
For `COc1cccc2c1c(NS(=O)(=O)c1ccc(Cl)s1)nn2Cc1cccc(CNC(=O)C(C)(C)O)c1.[Na]` [Compound of formula II, N-[(3-{[3-{[(5-chloro-2-thienyl)sulfonyl]amino}-4-(methoxy)-1H-indazole-1-yl]methyl}phenyl)methyl]-2-hydroxy-2-methylpropionamide sodium], the “Solubility in water under 25° C. ± 2° C.” value in data set [1] (water, 25° C. ± 2° C., visual dissolution within 30 minutes) is 500 mg/mL. Moreover, the “absorption classification from Papp” value in the data set with Caco-2 cells (Caco-2, Papp>2×10^−6 = good-absorption drug) was “easy-to-absorb compounds”. Besides, the “Papp (apparent permeability coefficient)” value in the data set on Caco-2 cells (Caco-2 monolayer, direction not given, sodium) was 68.82 ×10^−6. In addition, the “IC50, times higher than that of compound 6” value in data set [2] (relative to compound 6, same experimental conditions) came to 6 times.
For the compound `COc1cccc2c1c(NS(=O)(=O)c1ccc(Cl)s1)nn2Cc1cccc(CNC(=O)C(C)(C)O)c1` [Compound of formula III, N-[(3-{[3-{[(5-chloro-2-thienyl)sulfonyl]amino}-4-(methoxy)-1H-indazole-1-yl]methyl}phenyl)methyl]-2-hydroxy-2-methylpropionamide potassium], in data set [1], the “Solubility in water under 25° C. ± 2° C.” value was 40 mg/mL and the “solubility, times higher than that of compound 6” value is listed as 2000-25000 times. Also, in the data set on Caco-2 cells (Caco-2), the “absorption classification from Papp” value is on record as “easy-to-absorb compounds” and the “permeability, times higher than compound 6” value is listed as 530-780 times. The “IC50, times higher than that of compound 6” value in data set [2] came out at 210 times.

The record behind these values is patent publication US20210078985A1, “COMPOUND, PREPARATION METHOD THEREFOR, AND USE THEREOF” (MEDSPRING INTERNATIONAL LIMITED, priority 2018, published 2021).
